For assay [1], the system named is T-47D. The experiment in a line: NCI-60 screen, Breast Cancer panel. The assay is classed as cell-based. The following applies: Homo sapiens, T47D, 48 h.
The subject of assay [2] is EKVX. The experiment in a line: NCI-60 screen, Non-Small Cell Lung Cancer panel. It is filed as cell-based. The following applies: Homo sapiens, 48 h, read-out: GI50 (log10GI50) (converted).
Assay [3] deals with OVCAR-4. The experiment in a line: NCI-60 screen, Ovarian Cancer panel. It is filed as cell-based. The following applies: Homo sapiens, OVCAR-4, 48 h.
The test system of assay [4] is U87-MU (Glioma cells). As to the kind of experiment: Short term (72 h) cytotoxicity assay. The assay is classed as cell-based. The following applies: Glioma cell.
In assay [5] the test system is IGROV-1 (Ovarian cancer cells). The experiment in a line: Short term (72 h) cytotoxicity assay. The assay is classed as cell-based. The following applies: Homo sapiens; IGROV-1, 72 h cytotoxicity.
For assay [6], the system named is CAKI-1. As to the kind of experiment: NCI-60 screen, Renal Cancer panel. The assay is classed as cell-based. The following applies: Homo sapiens, CAKI-1, 48 h.
The subject of assay [7] is KM12. As to the kind of experiment: NCI-60 screen, Colon Cancer panel. It is filed as cell-based. The following applies: Homo sapiens, KM12, 48 h.
Assay [8] concerns DU-145. As to the kind of experiment: NCI-60 screen, Prostate Cancer panel. The following applies: Homo sapiens, DU-145, 48 h, read-out: GI50 (log10GI50) (converted). The assay is classed as cell-based.
In assay [9] the test system is MCF-7 (ER+ Breast Cancer). The experiment in a line: Short term (72 h) cytotoxicity assay. The assay is classed as cell-based. The following applies: Homo sapiens, MCF7; MCF-7, 72 h cytotoxicity.
Assay [10] concerns T47D breast cancer cells. As to the kind of experiment: Soft agar colony formation assay. The assay is classed as cell-based, human. Here is the method:
Colonies of cancer cells formed in soft agar in the presence and absence of the testing compounds is a standard assay to interpret in-vitro tumorigenic potential in the basal layer. Agar was prepared by mixing 1% DNA grade agar melted and cooled to 40° C. with an equal volume of (2×) Dulbecco's Modified Eagle's Medium (DMEM) to obtain 0.5% agar that was dispersed in a 6-well plate and allowed to solidify. A total of 0.6% agar was prepared in RPMI medium and mixed together with T47D cells (0.5×10^6 cells/mL) and immediately plated on the basal layer in the presence or absence of testing compounds. The cultures were incubated at 37° C. in a CO2 incubator for 2 weeks, and colonies were stained with 0.005% crystal violet and observed under a light microscope.

In assay [11] the test system is NCI-H332M. As to the kind of experiment: NCI-60 screen, Non-Small Cell Lung Cancer panel. The assay is classed as cell-based. The following applies: Homo sapiens, 48 h.
Assay [12] deals with NCI-H226. The experiment in a line: NCI-60 screen, Non-Small Cell Lung Cancer panel. It is filed as cell-based. The following applies: Homo sapiens, NCI-H226, 48 h, read-out: GI50 (log10GI50) (converted).
In assay [13] the test system is MDA-MB-231 ATCC. As to the kind of experiment: NCI-60 screen, Breast Cancer panel. The following applies: Homo sapiens, MDA-MB-231, 48 h. The assay is classed as cell-based.
Assay [14] concerns TK-10. The experiment in a line: NCI-60 screen, Renal Cancer panel. The assay is classed as cell-based. The following applies: Homo sapiens, TK-10, 48 h.
Assay [15] relates to RPMI-8226. The experiment in a line: NCI-60 screen, Leukemia panel. It is filed as cell-based. The following applies: Homo sapiens, RPMI-8226, 48 h.
Where [16] appears, read: read-out: GI50 (log10GI50) (converted).
Setting [17] is: read-out: LC50 (log10LC50) (converted).

In the case of `C#CC(F)(F)[C@]1(O)CCC2C3CCC4=CC(=O)CCC4=C3C(c3ccc(C4CC4)cc3)C[C@@]21C` (stereo partly drawn) [EC330, 17α-(1,1-difluoro-2-propyn-1-yl)-17β-hydroxy-11β-[4-p-(cyclopropyl)phenyl]estra-4,9-dien-3-one], the GI50 in [1] (setting [16]) was less than 0.01 µM; in [2], less than 0.01 µM; in assay [3] (setting [16]), 3.89 µM; in [6] (setting [16]) it was 0.0295 µM; in [7] (setting [16]), less than 0.01 µM; in [8] it was 1.91 µM. For the same compound, the GI50 in [11] (setting [16]) was 3.8 µM; in assay [12], 2.63 µM; in [13] (setting [16]), 0.55 µM; in assay [14] (setting [16]), 2.63 µM; in assay [15] (setting [16]), 0.112 µM. The CC50 in [1] (setting [17]) is greater than 100 µM; in assay [3] (setting [17]) it was greater than 100 µM; in assay [6] (setting [17]), greater than 100 µM; in [7] (setting [17]), 44.7 µM; in assay [11] (setting [17]) it was greater than 100 µM; in [13] (setting [17]) it was greater than 100 µM. The CC50 in assay [14] (setting [17]) and in [15] (setting [17]) was greater than 100 µM in each case. Besides, the IC50 was found to be 0.025 µM in assay [4], 0.035 µM in assay [5] and 0.1 µM in assay [9]. In assay [10] (100 nM concentration, in words), the “inhibition in the number of colonies formed” value is given as “complete inhibition”. Also, the inhibition at 0.005 µM in assay [10] (Homo sapiens, T47D, 5 nM concentration, read-out: inhibition in the number of colonies formed) stood at 50%.

As usually defined, the GI50 is the concentration giving 50% growth inhibition. A word on the IC50: it is the point on the concentration scale where inhibition reaches its midpoint. A higher IC50 goes with a need for much substance. The term inhibition denotes the change of the read-out against control, counted positive when it falls.
